# Experimental data taken from ChEMBL document CHEMBL3758161, “Synthesis and evaluation of antibacterial and antitumor activities of new galactopyranosylated amino alcohols” (Eur J Med Chem, 2016).
# How the values were obtained:
# [1] = Lipophilicity, log P of the compound; format: physicochemical; settings: octanol/water
# [2] = test system: Mycobacterium tuberculosis; test: microbe, parasite or virus in culture; settings: H37Rv
# Description: Antibacterial activity against Mycobacterium tuberculosis H37Rv
# [3] = test system: HeLa; test: Cytotoxicity against human HeLa cells assessed as cell growth inhibition after 24 hrs by XTT assay; format: functional, cell-based
# [4] = test system: MCF7; test: cells; settings: Homo sapiens, MCF7, 24 h
# Description: Cytotoxicity against human MCF7 cells assessed as cell growth inhibition after 24 hrs by XTT assay
# [5] = test system: MCF7; test: Selectivity index, ratio of IC50 for human GM07492A cells to IC50 for human MCF7 cells; format: functional
# [6] = Cytotoxicity against human GM07492A cells assessed as cell growth inhibition after 24 hrs by XTT assay; format: cell-based
# [7] = test system: M059J; test: Cytotoxicity against human M059J cells assessed as cell growth inhibition after 24 hrs by XTT assay; format: functional, cell-based
# [8] = test system: Staphylococcus epidermidis; test: Antibacterial activity against gram-positive Staphylococcus epidermidis ATCC 12228 at 5 mg/ml incubated overnight by agar well diffusion method; format: functional; settings: read-out: DIZ
# [9] = test system: Staphylococcus aureus; test: Bactericidal activity against gram-positive Staphylococcus aureus ATCC 3591 after 24 hrs by broth dilution method; format: functional; settings: ATCC 3591, 24 h
# [10] = test system: Pseudomonas aeruginosa; test: Bactericidal activity against gram-negative Pseudomonas aeruginosa ATCC 2785 after 24 hrs by broth dilution method; format: functional; settings: ATCC 2785, 24 h
# [11] = test system: Escherichia coli; test: Bactericidal activity against gram-negative Escherichia coli ATCC 11229 after 24 hrs by broth dilution method; format: functional; settings: ATCC 11229, 24 h
# [12] = test system: Pseudomonas aeruginosa; test: Antibacterial activity against gram-negative Pseudomonas aeruginosa ATCC 2785 at 5 mg/ml incubated overnight by agar well diffusion method; format: functional; settings: read-out: DIZ
# [13] = test system: Staphylococcus epidermidis; test: Bactericidal activity against gram-positive Staphylococcus epidermidis ATCC 12228 after 24 hrs by broth dilution method; format: functional; settings: ATCC 12228, 24 h
# [14] = test system: Staphylococcus aureus; test: Antibacterial activity against gram-positive Staphylococcus aureus ATCC 3591 at 5 mg/ml incubated overnight by agar well diffusion method; format: functional; settings: read-out: DIZ
# [15] = test system: Escherichia coli; test: Antibacterial activity against gram-negative Escherichia coli ATCC 11229 at 5 mg/ml incubated overnight by agar well diffusion method; format: functional; settings: read-out: DIZ
Structure (SMILES),logP [1],MIC [2],IC50 [3],IC50 [4],Ratio IC50 [5],IC50 [6],IC50 [7],zone of inhibition at 5000 µg/mL [8],MBC [9],MBC [10],MBC [11],zone of inhibition at 5000 µg/mL [12],MBC [13],zone of inhibition at 5000 µg/mL [14],zone of inhibition at 5000 µg/mL [15]
CCCCCCCCCCCCNCCN,4.69,27 µM,–,–,–,–,–,–,–,–,–,–,–,–,–
CCCCCCCCCCCCNCCO,3.93,27 µM,–,–,–,–,–,–,–,–,–,–,–,–,–
CCCCCCCCNCCO,2.55,577 µM,–,–,–,–,–,–,–,–,–,–,–,–,–
CCCCCCCCCCNCCO,3.09,248 µM,–,–,–,–,–,–,–,–,–,–,–,–,–
CCCCCCCCCCCCN(CCO)C[C@@H](O)COC[C@H]1O[C@@H]2OC(C)(C)O[C@@H]2[C@H]2OC(C)(C)O[C@H]21,4.22,29 µM,105 µM,75.7 µM,3.4,260 µM,97.8 µM,–,–,–,–,–,–,–,–
CCCCCCCCC(O)CNCCO (stereo not drawn),2.14,460 µM,–,–,–,–,–,–,–,–,–,–,–,–,–
CCCCCCCCCCCCC(O)CNCCO (stereo not drawn),4.69,46 µM,–,–,–,–,–,–,–,–,–,–,–,–,–
CCCCCCCCCCNCCCN,2.82,116 µM,–,–,–,–,–,–,–,–,–,–,–,–,–
CCCCCCCCCCNCCN,2.71,249 µM,–,–,–,–,–,–,–,–,–,–,–,–,–
CCCCCCCCCCCCCCNCCN,4.5,97 µM,–,–,–,–,–,–,–,–,–,–,–,–,–
CCCCCCCCCCC(O)CNCCO (stereo not drawn),3.62,102 µM,–,–,–,–,–,–,–,–,–,–,–,–,–
CCCCCCCCCCCCN(CCO)C[C@H](O)COC[C@H]1O[C@@H]2OC(C)(C)O[C@@H]2[C@H]2OC(C)(C)O[C@H]21,4.22,15 µM,162 µM,182 µM,0.8,162 µM,–,–,–,–,–,–,–,–,–
CCCCCCCCCCCCCCNCCCN,4.88,46 µM,–,–,–,–,–,–,–,–,–,–,–,–,–
CCCCCCCCCCCCNCCCN,5.06,103 µM,–,–,–,–,–,–,–,–,–,–,–,–,–
CCCCCCCCCCC(O)CN(CCO)CC(O)COC[C@H]1O[C@@H]2OC(C)(C)O[C@@H]2[C@H]2OC(C)(C)O[C@H]21 (mixture of isomers),3.37,175 µM,–,–,–,–,–,11 mm,> 911 µM,> 911 µM,> 911 µM,20 mm,28 µM,–,–
CCCCCCCCCCCCCCN(CCO)CC(O)COC[C@H]1O[C@@H]2OC(C)(C)O[C@@H]2[C@H]2OC(C)(C)O[C@H]21 (mixture of isomers),5.06,22 µM,87.7 µM,30.8 µM,2.7,83 µM,12.8 µM,30 mm,111 µM,892 µM,> 892 µM,–,3 µM,18 mm,–
CCCCCCCCN(CCO)CC(O)COC[C@H]1O[C@@H]2OC(C)(C)O[C@@H]2[C@H]2OC(C)(C)O[C@H]21 (mixture of isomers),2.55,> 204 µM,–,–,–,–,–,–,–,–,–,–,–,–,–

Structure (SMILES),logP [1],MIC [2],IC50 [3],IC50 [4],Ratio IC50 [5],IC50 [6],IC50 [7],zone of inhibition at 5000 µg/mL [8],MBC [9],MBC [10],MBC [11],zone of inhibition at 5000 µg/mL [12],MBC [13],zone of inhibition at 5000 µg/mL [14],zone of inhibition at 5000 µg/mL [15]
CCCCCCCCCCCCCCNCCNCC(O)COC[C@H]1O[C@@H]2OC(C)(C)O[C@@H]2[C@H]2OC(C)(C)O[C@H]21 (mixture of isomers),3.56,87 µM,41.5 µM,39.3 µM,0.6,24.9 µM,39.2 µM,20 mm,14 µM,> 894 µM,445 µM,20 mm,14 µM,22 mm,10 mm
CCCCCCCCC(O)CN(CCO)CC(O)COC[C@H]1O[C@@H]2OC(C)(C)O[C@@H]2[C@H]2OC(C)(C)O[C@H]21 (mixture of isomers),2.43,> 187 µM,–,–,–,–,–,22 mm,240 µM,> 959 µM,> 959 µM,18 mm,120 µM,16 mm,–
CCCCCCCCCCNCCNCC(O)COC[C@H]1O[C@@H]2OC(C)(C)O[C@@H]2[C@H]2OC(C)(C)O[C@H]21 (mixture of isomers),3.15,24 µM,40.2 µM,28 µM,2.3,63.3 µM,39.2 µM,20 mm,8 µM,> 990 µM,> 990 µM,–,8 µM,20 mm,16 mm
CCCCCCCCCCCCN(CCO)CC(O)COC[C@H]1O[C@@H]2OC(C)(C)O[C@@H]2[C@H]2OC(C)(C)O[C@H]21 (mixture of isomers),4.22,23 µM,125 µM,104 µM,2.7,282 µM,110 µM,20 mm,> 938 µM,> 938 µM,> 938 µM,20 mm,4 µM,–,–
CCCCCCCCCCCCC(O)CN(CCO)CC(O)COC[C@H]1O[C@@H]2OC(C)(C)O[C@@H]2[C@H]2OC(C)(C)O[C@H]21 (mixture of isomers),–,–,–,–,–,–,–,18 mm,> 868 µM,> 868 µM,> 868 µM,–,13 µM,20 mm,–
CCCCCCCCCCCCNCCNCC(O)COC[C@H]1O[C@@H]2OC(C)(C)O[C@@H]2[C@H]2OC(C)(C)O[C@H]21 (mixture of isomers),3.99,91 µM,–,11.9 µM,0.6,7.3 µM,10 µM,20 mm,15 µM,> 940 µM,235 µM,20 mm,15 µM,30 mm,10 mm
CCCCCCCCCCN(CCO)CC(O)COC[C@H]1O[C@@H]2OC(C)(C)O[C@@H]2[C@H]2OC(C)(C)O[C@H]21 (mixture of isomers),3.39,96 µM,–,–,–,–,–,20 mm,123 µM,988 µM,> 988 µM,–,61 µM,20 mm,–
CCCCCCCCCCCCNCCCNCC(O)COC[C@H]1O[C@@H]2OC(C)(C)O[C@@H]2[C@H]2OC(C)(C)O[C@H]21 (mixture of isomers),4.09,22 µM,34.5 µM,27.8 µM,0.8,23.5 µM,34.8 µM,19 mm,> 916 µM,> 916 µM,> 916 µM,–,> 916 µM,20 mm,–
CCCCCCCCCCNCCCNCC(O)COC[C@H]1O[C@@H]2OC(C)(C)O[C@@H]2[C@H]2OC(C)(C)O[C@H]21 (mixture of isomers),3.26,23 µM,57 µM,32.2 µM,0.9,29.4 µM,53.8 µM,–,60 µM,> 965 µM,241 µM,–,15 µM,12 mm,28 mm
CCCCCCCCCCCCCCNCCCNCC(O)COC[C@H]1O[C@@H]2OC(C)(C)O[C@@H]2[C@H]2OC(C)(C)O[C@H]21 (mixture of isomers),4.12,42 µM,147 µM,194 µM,0.4,80.3 µM,195 µM,–,–,–,–,–,–,–,–
CC[C@@]1(O)C(=O)OCc2c1cc1n(c2=O)Cc2cc3ccccc3nc2-1 [CAMPTOTHECIN],–,–,19.8 µM,6 µM,0.5,3.2 µM,5.5 µM,–,–,–,–,–,–,–,–
COc1cccc2c1C(=O)c1c(O)c3c(c(O)c1C2=O)C[C@@](O)(C(=O)CO)C[C@@H]3O[C@H]1C[C@H](N)[C@H](O)[C@H](C)O1 [DOXORUBICIN],–,–,21.9 µM,–,–,0.5 µM,6.9 µM,–,–,–,–,–,–,–,–
CC[C@@H](CO)NCCN[C@@H](CC)CO [ETHAMBUTOL],–,15 µM,–,–,–,–,–,–,–,–,–,–,–,–,–
COc1cc([C@@H]2c3cc4c(cc3[C@@H](O[C@@H]3O[C@@H]5CO[C@@H](C)O[C@H]5[C@H](O)[C@H]3O)[C@H]3COC(=O)[C@H]23)OCO4)cc(OC)c1O [ETOPOSIDE],–,–,226 µM,82.6 µM,0,1.2 µM,58.9 µM,–,–,–,–,–,–,–,–
CCCCCCCCCCCCCCNCCO [MYRALACT],4.76,49 µM,–,–,–,–,–,–,–,–,–,–,–,–,–
NC(=O)N/N=C/c1ccc([N+](=O)[O-])o1 [NITROFURAZONE],–,–,–,–,–,–,–,25 mm,–,–,–,15 mm,–,31 mm,35 mm
CO[C@H]1/C=C/O[C@@]2(C)Oc3c(C)c(O)c4c(O)c(c(/C=N/N5CCN(C)CC5)c(O)c4c3C2=O)NC(=O)/C(C)=C\C=C\[C@H](C)[C@H](O)[C@@H](C)[C@@H](O)[C@@H](C)[C@H](OC(C)=O)[C@@H]1C [RIFAMPIN],–,1 µM,–,–,–,–,–,–,–,–,–,–,–,–,–
